Entries after “also recorded” stand apart in the source; their conditions may differ. Each block holds one compound with its values, some of them ahead of it.
Tests used:
dCK activity = target: T1, dCK activity (Mus musculus, UniProt P43346); assay: Inhibition of dCK activity in vivo by 18F-FAC PET/CT imaging; settings: mice
T1 construct: dCK expressing tissues such as Thymus (Thy), Bone marrow (BM), spleen (S) and the GI tract; from tissue; host or cells: living mice: thymus, bone marrow, spleen, GI tract
Procedure: Mice were treated with the dCK inhibitor and scanned at indicated time points by ^18F-FAC PET/CT to non-invasively determine dCK activity in vivo, throughout the body. ^18F-FAC PET/CT scans were performed as described in Shu, C. J. et al., “Novel PET probes specific for deoxycytidine kinase” J. Nucl.

thymidine (dT) uptake = assay: Inhibition of thymidine (dT) uptake (selectivity vs. dC uptake); settings: read-out: dCKi IC50 dT
Excerpt: Potency of dCK inhibitory activities of the compounds can be tested by measuring cellular substrate uptake and phosphorylation, for examples, uptake of [^3H]-deoxycytidine (dCyd or dC) into CEM (human) or L1210 (mouse) cells. The compounds may be further screened for low off-target toxicity (e.g., inhibition of growth and proliferation of dCK negative cells) and selectivity over other nucleoside kinases (e.g., thymidine kinase).

Primary murine T cells = assay: In vitro T lymphocyte proliferation (CFSE, flow cytometry); assay type: cell-based, C57/BL6 mice; settings: 1 μM final concentration, 72 hours after activation
Procedure: Primary murine T cells were obtained from C57/BL6 mice. […] Prior to antibody-mediated activation, T cells were labeled with the fluorescent dye CFSE to allow measurements of cell division. […] The dCK inhibitors were used at 1 μM final concentration.

[1] = test system: IGROV1 human ovarian adenocarcinoma; assay: S-phase arrest by flow cytometry, IGROV1 cells; assay type: cell-based
Procedure: (§1) At the end of the incubation period cells were analyzed by flow cytometry to determine the effects of the treatment on cell cycle progression.

[2] = test system: CCRF-CEM (CEM) human acute T lymphoblastic leukemia; assay: Leukemic cell proliferation and viability, CEM cells, 72 hours; assay type: cell-based
Procedure: Addition of 2.5 μM dC rescued the cell cycle from the thymidine block by the salvage pathway.

[3] = target: deoxycytidine kinase (dCK) (Homo sapiens, UniProt P27707); assay: Inhibition of [3H]-deoxycytidine (dCyd) uptake by CEM cells; settings: for Inhibition of [3H]-dCyd uptake by CEM cells, in words: ranking within panel / compared with DI-0105, DI-0110 and DI-0120
Procedure: Potency of dCK inhibitory activities of the compounds can be tested by measuring cellular substrate uptake and phosphorylation, for examples, uptake of [^3H]-deoxycytidine (dCyd or dC) into CEM (human) or L1210 (mouse) cells.
50,000 CEM cells/well were added to Millipore MultiScreen GV 96 well plates. Cells were resuspended at 1×10^6 cells/mL and incubated for 30 minutes at 37° C. The drug dilution plate was prepared by starting with an initial drug concentration of 10 mM in DMSO, and proceeding to make 1:5 dilutions for drug. 10 mL of drug was added to 40 mL DMSO and mixed by pipetting 10 times before removing 10 uL for next well (1:5 serial dilutions). The media and tritiated deoxycytidine was mixed together. 245 mL of media/probe mixture was added to each well of an Optiplate. 5 mL from drug plate was added to each well in the Optiplate to obtain drug/media/probe mixture and mixed. 50 mL of drug/media/probe mixture from Optiplate was added to the cell plate and incubate at 37° C. for 1 hour. The cell plate was placed on vacuum to aspirate, and then washed with ice cold PBS: 200 mL 1×PBS 4 times. The backing of the plate was peeled off, and the plate was placed in dryer for at least 30 minutes or until dry at 37° C. 100 mL Scintillation fluid per well was added, and the plate was sealed with clear plate seal. The plate was read on the Microbeta instrument.

[4] = test system: A549 human lung adenocarcinoma cells; assay: Cell proliferation and viability, A549 cells, 72 hours; settings: 1 μM F2.2.1 + 1 mM dT
Procedure: At the end of the incubation period cells were analyzed by flow cytometry to determine the effects of the treatment on cell proliferation and viability.

[5] = test system: CCRF-CEM (CEM) human acute T lymphoblastic leukemia; assay: S-phase arrest by flow cytometry, CEM cells; assay type: cell-based
Procedure: as §1

[6] = test system: NALM-6 human acute B lymphoblastic leukemia; assay: Cell proliferation and viability, NALM-6 cells, 72 hours; settings: 1 μM F2.2.1 + 1.6 mM dT, media with 1.25 μM deoxycytidine
Procedure: At the end of the incubation period cells were analyzed by flow cytometry to determine the effects of the treatment on leukemic cell proliferation and viability.

[7] = test system: NALM-6 human acute B lymphoblastic leukemia; assay: S-phase arrest by flow cytometry, NALM-6 cells; assay type: cell-based
Procedure: as §1

CEM shC cells = assay: Growth of CEM cells treated with dT and/or dC over 7 days; assay type: cell-based, human; settings: period of 7 days
Excerpt: Compound F2.2.1 was not used in “Mock” experiments in either panel A or B.

T1 sequence (P43346 whole entry): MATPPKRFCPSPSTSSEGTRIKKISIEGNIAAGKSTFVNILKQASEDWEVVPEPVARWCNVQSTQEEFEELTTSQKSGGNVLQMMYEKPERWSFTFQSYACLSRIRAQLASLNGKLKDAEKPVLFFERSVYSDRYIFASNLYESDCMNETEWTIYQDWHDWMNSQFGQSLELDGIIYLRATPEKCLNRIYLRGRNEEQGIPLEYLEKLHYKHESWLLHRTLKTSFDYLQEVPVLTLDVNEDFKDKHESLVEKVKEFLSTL
deoxycytidine kinase (dCK), sequence (P27707 whole entry): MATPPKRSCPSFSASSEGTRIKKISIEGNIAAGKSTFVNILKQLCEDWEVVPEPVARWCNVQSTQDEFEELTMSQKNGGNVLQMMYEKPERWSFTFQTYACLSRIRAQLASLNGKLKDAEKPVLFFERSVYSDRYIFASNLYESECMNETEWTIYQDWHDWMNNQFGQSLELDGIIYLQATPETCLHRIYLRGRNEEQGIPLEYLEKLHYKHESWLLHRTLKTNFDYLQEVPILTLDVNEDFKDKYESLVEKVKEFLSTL

Compound: COc1ccc(-c2nc(CSc3nc(N)cc(N)n3)c(C)s2)cc1OCCF [Compound F2.2.1]
- Duration of inhibition of dCK activity in vivo in multiple tissues (dCK activity; 200 mg/kg oral gavage): at least 2 hours
- 18F-FAC signals in dCK expressing tissues (dCK activity; Thymus, Bone marrow, spleen and GI tract): Significant decrease
- 18F-FAC signals in the bladder (dCK activity; bladder, probe clearance organ): not affected
- IC50 (thymidine (dT) uptake): 4930 nM
- T cell proliferation (Primary murine T cells): significantly blocks T cell proliferation
- dT + dCKi % S-phase arrest (of cells in cycle) ([1]; IGROV1, 1 mM dT + 1 mM F2.2.1, 24 hours): 60.3%
- Growth / proliferation of CEM cells, combination with thymidine ([2]; 1 μM F2.2.1 + 50 μM dT): almost completely shut down the growth of CEM cells; also recorded: significantly reduce the proliferation
- Effect on cell viability, compound alone ([2]; 1 μM alone): little effect on cell viability
- Inhibition of [3H]-dCyd uptake by CEM cells, in words [3]: superior activities
- Proliferation of A549 cells, combination with thymidine [4]: significantly reduce the proliferation
- dT + dCKi % S-phase arrest (of cells in cycle) ([5]; 50 mM dT + 1 mM F2.2.1, 24 hours): 84.5%
- Proliferation of NALM-6 cells, combination with thymidine [6]: significantly reduce the proliferation
- dT + dCKi % S-phase arrest (of cells in cycle) ([7]; NALM-6, 1.6 mM dT + 1 mM F2.2.1, 24 hours): 79.8%
- Growth of thymidine (dT) treated CEM cells (CEM shC cells): completely suppressed the growth

Compound: CCCc1sc(-c2ccc(OC)c(OCCO)c2)nc1CSc1nc(N)cc(N)n1 [DI-26]
- T cell proliferation (Primary murine T cells): significantly blocks T cell proliferation

Compound: CCCc1sc(-c2ccc(OC)c(OCCO)c2)nc1CSc1nccc(N)n1 [DI-27]
- Inhibition of [3H]-dCyd uptake by CEM cells, in words [3]: among the most potent compounds in this panel

Compound: CCCc1sc(-c2cccc(OCCO)c2)nc1CSc1nc(N)cc(N)n1 [DI-29]
- Inhibition of [3H]-dCyd uptake by CEM cells, in words [3]: among the most potent compounds in this panel

- EC50 [3]: 2.5 nM
Compound: CCCc1sc(-c2ccnc(OCCO)c2)nc1CSc1nc(N)cc(N)n1 [DI-30]
- Inhibition of [3H]-dCyd uptake by CEM cells, in words [3]: among the most potent compounds in this panel; also recorded: superior activities

- EC50 [3]: 133 nM
Compound: CCOc1ccc(-c2nc(CSc3nc(N)cc(N)n3)cs2)cc1OC [DI-0105]

- EC50 [3]: 478 nM
Compound: COc1ccc(-c2nc(CSc3nc(N)cc(N)n3)cs2)cc1 [DI-0110]

- EC50 [3]: 779 nM
Compound: COc1ccc(Br)cc1-c1nc(CSc2nc(N)cc(N)n2)cs1 [DI-0120]

Compound: Cc1cn([C@H]2C[C@H](O)[C@@H](CO)O2)c(=O)[nH]c1=O [dT, thymidine, reference compound]
- dT without dCKi % S-phase arrest (of cells in cycle) ([1]; IGROV1, 1 mM dT, 24 hours): 35.9%
- Cell growth and cell cycle, thymidine alone ([2]; dT at 50 μM): suppressed cell growth but failed to shut down the cell cycle
- dT without dCKi % S-phase arrest (of cells in cycle) ([5]; 50 mM dT, 24 hours): 36%
- dT without dCKi % S-phase arrest (of cells in cycle) ([7]; NALM-6, 1.6 mM dT, 24 hours): 52%

Compound: Nc1ccn([C@H]2C[C@H](O)[C@@H](CO)O2)c(=O)n1 [deoxycytidine (dC), deoxycytidine]
- Number of viable cells relative to vehicle control, deoxycytidine ([2]; 2.5 μM dC): decreased the number of viable cells

— patent publication US9688673B2, “Deoxycytidine kinase binding compounds” (THE REGENTS OF THE UNIVERSITY OF CALIFORNIA, priority 2011, dated 2017)
